In patent US20090098596A1, “PHOTOSTABLE FRET-COMPETENT BIARSENICAL-TETRACYSTEINE PROBES BASED ON FLUORINATED FLUORESCEINS” (priority 2006, published 2009):
Read-outs that look alike come from different tables or passages of the source.

Key:
[1] = Fluorescence lifetimes by TCSPC; type: physicochemical; conditions: for t (fluorescence lifetime), parent fluorophore: 20 mM buffer HEPES, pH 7.4; for t (fluorescence lifetime), P12-Complex: TCSPC
Experimental: (§1) Absorption and fluorescence spectra were measured with a UVIKON 943 Double Beam UV/Vis absorption spectrophotometer and with a Perkin Elmer LS50B fluorescence spectrophotometer, respectively. Lifetime measurements were made by TCSPC in a Horiba Jobin Yvon IBH Fluorescence Lifetime Spectrometer System. The excitation source at 495 nm was a NanoLED N-01 Aqua and the detection module was TBX-04-A. Irradiation was carried out using a Superlite SUV-DC-P system incorporating a 200W DC Super-Pressure short arc lamp coupled to a light guide for high UV transmission and an electronic timer for exposure time control (Lumatec GmbH,
The fluorescence lifetimes of the complexes obtained as described in section 3.1, were determined by TCSPC. The corresponding values for each parent fluorescein were also determined in 20 mM buffer HEPES, pH 7.4 for comparison.

[2] = Photostability (photobleaching under mercury arc lamp irradiation); type: physicochemical; conditions: complexes with P12
Experimental: FIG. 2 illustrates a graph illustrations photobleaching of F2F1AsH-P12 (◯), F4F1AsH-P12 (□) and F1AsH-P12 (+). Full lines correspond to exponential fits. Complexes of the three dyes (10 μM) were irradiated with a mercury arc lamp through a 490-560 nm filter with an irradiance of 70 mW/cm^2;
as §1
Samples containing 10 μM of the biarsenical compounds and 10 μM of the model peptide P12, were incubated at room temperature for 1 h. Each solution of the F1AsH-peptide complex was irradiated for 120 min as previously described (see General Procedures).
Values of κbl were calculated from the monoexponential fitting of the experimental photobleaching decay, according to the model described in (Eq. 1) for the intermediate irradieation regime.^13
where τ(s) is the lifetime, Ψ is the irradiance (photons cm^−2 s^−1) and σ is the molecular absorption cross-section (cm^2 molecules^−1). Inasmuch as a broad excitation bandwidth was used, σ was computed as a mean value over the spectral distribution function of photon flux and corrected by the spectral integral with the corresponding absorption spectra, including the irradiation source and filter.

[3] = system: model target peptide P12 (FLNCCPGCCMEP); assay: In vitro labeling of model peptide P12; absorption and emission spectra of biarsenical-P12 complexes; type: physicochemical
Experimental: as §1
To a solution of the biarsenical compound in buffer HEPES 20 mM, 1 mM 2-ME, pH 7.4, at a concentration of 0.1 μM and with a slight excess of EDT, was added the model target peptide P12 ([…]) to a final concentration of 1 μM from a stock solution in the same buffer and treated with 10 mM TCEP to reduce any disulfide bond. Emission spectra were taken after two hours of formation of the complex. FIG. 4 depicts the emision spectra of the F2F1AsH, F4F1AsH and F1AsH at equal concentration, with excitation at 490 nm. A 4-fold enhanced fluorescence emission of F2F1AsH compared to F1AsH can be observed.

[4] = Critical Förster distances of donor-acceptor combinations; type: physicochemical
Text: F2F1AsH and F4F1AsH have a very favorable spectral overlap, leading to a large J (the overlap integral) and thus an R0 of 5.4 nm, greater than any of the values obtained with the other combinations of donors and acceptors based on biarsenical dyes. For example the F1ASH-ReAsH pair has an R0 of 3.9 nm. Thus, the new F2F1AsH-F4F1AsH probes constitute a new donor acceptor pair extending the dynamic range for heteroFRET in studies of living cells by 40%. They also provide new possibilities in combination with other FRET donors and acceptors within and outside the biarsenical family.

[5] = approximate value from ref 8; cited from earlier work

## O=C1OC2(c3cc(F)c(O)cc3Oc3cc(O)c(F)cc32)c2ccccc21 [2′,7′-difluorofluorescein]
[1]
  t (fluorescence lifetime), parent fluorophore: 4.02 ns

## O=C1OC2(c3ccc(O)cc3Oc3cc(O)ccc32)c2c(F)c(F)c(F)c(F)c21 [3,4,5,6-tetrafluorofluorescein]
[1]
  t (fluorescence lifetime), parent fluorophore: 4.13 ns

## O=C1OC2(c3ccccc31)c1cc(F)c(O)c([As]3SCCS3)c1Oc1c2cc(F)c(O)c1[As]1SCCS1 [F2FlAsH, 4′,5′-Bis(1,2,3-dithioarsolan-2-yl)-2′,7′-difluorofluorescein]
[2]
  wavelength of fluorescence maximum: 516 nm
[3]
  shift of absorption maximum to the blue compared to FlAsH: 11 nm
[3]; P12 complex
  emission quantum yield relative to FlAsH complex: 2 ×
  extinction coefficient at 490 nm relative to FlAsH complex: 2 ×
[3]; P12 complex, λexc 490 nm, λem 525 nm
  fluorescence intensity relative to complex with parent FlAsH: 4 fold
[3]; biarsenical-P12 complex
  λem: 522 nm
[3]; complex with P12
  Stokes shift: 22 nm
  Stokes shift, greater than that of the FlAsH complex by: 7 nm
[1]
  t (fluorescence lifetime), P12-Complex: 4.78 ns
[4]; acceptor F2FlAsH
  10^13 · J (overlap integral): 1.37
  Ro: 5.2 nm
[4]; acceptor F4FlAsH
  10^13 · J (overlap integral): 1.58
  Ro: 5.4 nm
[4]; acceptor FlAsH
  10^14 · J (overlap integral): 6.41
  Ro: 4.1 nm
[4]; acceptor ReAsH
  10^14 · J (overlap integral): 3.44
  Ro: 4.1 nm

## O=C1OC2(c3ccc(O)c([As]4SCCS4)c3Oc3c2ccc(O)c3[As]2SCCS2)c2c(F)c(F)c(F)c(F)c21 [F4FlAsH, 4′,5′-Bis(1,2,3-dithioarsolan-2-yl)-3,4,5,6-tetrafluorofluorescein]
[2]
  wavelength of fluorescence maximum: 538 nm
[3]
  displacement of absorption maximum to the red compared to FlAsH: 17 mn
[1]
  t (fluorescence lifetime), P12-Complex: 5.18 ns
[4]
  Φd, emission quantum yield of donor: 0.4
[4]; acceptor F4FlAsH
  10^13 · J (overlap integral): 1.17
  Ro: 4.5 nm
[4]; acceptor ReAsH
  10^14 · J (overlap integral): 6.45
  Ro: 4.1 nm

## O=C1OC2(c3ccccc31)c1ccc(O)c([As]3SCCS3)c1Oc1c2ccc(O)c1[As]1SCCS1 [FlAsH, 4′,5′-Bis(1,2,3-dithioarsolan-2-yl)-fluorescein, reference compound]
[2]
  wavelength of fluorescence maximum: 519.5 nm
[1]
  t (fluorescence lifetime), P12-Complex: 4.88 ns
[1]; biarsenical-P12 complex
  τ (fluorescence lifetime): 4.88 ns
[5]
  Φd, emission quantum yield of donor: ~0.4
[4]; acceptor F4FlAsH
  10^13 · J (overlap integral): 1.48
  Ro: 4.7 nm
[4]; acceptor ReAsH
  10^14 · J (overlap integral): 5.03
  Ro: 3.9 nm
